Data taken from ChEMBL document CHEMBL1201862, “PubChem BioAssay data set” (2004).
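Grown in 96-well plates, cells were treated for 48 hours with each compound at five concentrations. Insufficient inhibition: endpoint recorded as highest concentration tested. GI50 marks 50% less growth.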 The source made the active and inactive calls. Cut-off read from the data, not from the text of the source: active = GI50 up to about 1.1 µM and inactive = higher.

Legend:
Assay in all cases: DTP human tumour cell line panel, 48 h
[1] = test system: U-251
[2] = test system: SNB-75
[3] = test system: MDA-N
[4] = test system: SF-539
[5] = test system: OVCAR-8
[6] = test system: NCI-H460
[7] = test system: KM12
[8] = test system: A549
[9] = test system: CAKI-1
[10] = test system: A498
[11] = test system: 786-0
[12] = test system: DU-145
[13] = test system: SF-295
[14] = test system: HOP-92
[15] = test system: SW-620
[16] = test system: HCT-116
[17] = test system: SK-OV-3
[18] = test system: MDA-MB-231
[19] = test system: ACHN
[20] = test system: MCF7
[21] = test system: Hs-578T
[22] = test system: EKVX
[23] = test system: HCT-15
[24] = test system: OVCAR-4
[25] = test system: TK-10
[26] = test system: OVCAR-5
[27] = test system: MDA-MB-435
[28] = test system: Malme-3M
[29] = test system: OVCAR-3
[30] = test system: NCI/ADR-RES
[31] = test system: NCI-H226
[32] = test system: K562
[33] = test system: HOP-62
[34] = test system: SNB-19
[35] = test system: BT-549
[36] = test system: CCRF-CEM
[37] = test system: RXF 393
[38] = test system: SF-268
[39] = test system: HL-60
[40] = test system: T47D
[41] = test system: LOX IMVI
[42] = test system: SK-MEL-5
[43] = test system: NCI-H23
[44] = test system: UACC-257
[45] = test system: M14
[46] = test system: UACC-62
[47] = test system: COLO 205
[48] = test system: HCC 2998
[49] = test system: SN12C
[50] = test system: SK-MEL-28
[51] = test system: PC-3
[52] = test system: HT-29
[53] = test system: UO-31
[54] = test system: MOLT-4
[55] = test system: IGROV-1
[56] = test system: RPMI-8226
[57] = test system: NCI-H522
[58] = test system: SK-MEL-2

SMILES: CC1CC[C@@]2(OC1)OC1CC3C4CCC5C[C@@H](OC6OC(CO)C(OC7OC(CO)C(O)C(OC8OC(CO)C(O)C(OC9OC(CO)C(O)C(O)C9O)C8O)C7OC7OC(CO)C(O)C(O)C7O)C(O)C6O)[C@H](O)C[C@]5(C)C4CC[C@]3(C)C1[C@@H]2C (some centres not stated)
- GI50 [1]: > 80.5 µM (inactive)
- GI50 [2]: > 80.5 µM (inactive)
- GI50 [3]: > 80.5 µM (inactive)
- GI50 [4]: > 80.5 µM (inactive)
- GI50 [5]: > 80.5 µM (inactive)
- GI50 [6]: > 80.5 µM (inactive)
- GI50 [7]: > 80.5 µM (inactive)
- GI50 [8]: > 80.5 µM (inactive)
- GI50 [9]: > 80.5 µM (inactive)
- GI50 [10]: > 80.5 µM (inactive)
- GI50 [11]: > 80.5 µM (inactive)
- GI50 [12]: > 80.5 µM (inactive)
- GI50 [13]: > 80.5 µM (inactive)
- GI50 [14]: > 80.5 µM (inactive)
- GI50 [15]: > 80.5 µM (inactive)
- GI50 [16]: > 80.5 µM (inactive)
- GI50 [17]: > 80.5 µM (inactive)
- GI50 [18]: > 80.5 µM (inactive)
- GI50 [19]: > 80.5 µM (inactive)
- GI50 [20]: > 80.5 µM (inactive)
- GI50 [21]: > 80.5 µM (inactive)
- GI50 [22]: > 80.5 µM (inactive)
- GI50 [23]: > 80.5 µM
- GI50 [24]: > 80.5 µM (inactive)
- GI50 [25]: > 80.5 µM (inactive)
- GI50 [26]: > 80.5 µM (inactive)
- GI50 [27]: > 80.5 µM (inactive)
- GI50 [28]: > 80.5 µM (inactive)
- GI50 [29]: > 80.5 µM (inactive)
- GI50 [30]: > 80.5 µM (inactive)
- GI50 [31]: > 80.5 µM (inactive)
- GI50 [32]: > 80.5 µM (inactive)
- GI50 [33]: > 80.5 µM (inactive)
- GI50 [34]: > 80.5 µM (inactive)
- GI50 [35]: > 80.5 µM (inactive)
- GI50 [36]: > 80.5 µM (inactive)
- GI50 [37]: > 80.5 µM (inactive)
- GI50 [38]: > 80.5 µM (inactive)
- GI50 [39]: > 80.5 µM (inactive)
- GI50 [40]: > 80.5 µM (inactive)
- GI50 [41]: > 80.5 µM (inactive)
- GI50 [42]: > 80.5 µM (inactive)
- GI50 [43]: > 80.5 µM (inactive)
- GI50 [44]: > 80.5 µM (inactive)
- GI50 [45]: > 80.5 µM (inactive)
- GI50 [46]: > 80.5 µM (inactive)
- GI50 [47]: > 80.5 µM (inactive)
- GI50 [48]: > 80.5 µM (inactive)
- GI50 [49]: > 80.5 µM (inactive)
- GI50 [50]: > 80.5 µM (inactive)
- GI50 [51]: > 80.5 µM (inactive)
- GI50 [52]: > 80.5 µM (inactive)

SMILES: CN(C)c1ccc(/C=C2\N=C(N/N=C/c3ccccc3)NC2=O)cc1
- GI50 [1]: 60.5 µM (inactive)
- GI50 [2]: 81.1 µM (inactive)
- GI50 [53]: > 100 µM (inactive)
- GI50 [54]: 26.8 µM (inactive)
- GI50 [3]: 33.4 µM (inactive)
- GI50 [5]: 26.3 µM (inactive)
- GI50 [6]: 49.9 µM (inactive)
- GI50 [7]: 52.6 µM (inactive)
- GI50 [8]: 36.7 µM (inactive)
- GI50 [9]: > 100 µM (inactive)
- GI50 [10]: > 100 µM (inactive)
- GI50 [11]: 44.2 µM (inactive)
- GI50 [12]: 58.7 µM (inactive)
- GI50 [13]: 69.5 µM (inactive)
- GI50 [55]: 44.9 µM (inactive)
- GI50 [14]: 26.4 µM (inactive)
- GI50 [15]: 67.9 µM (inactive)
- GI50 [16]: 83.6 µM (inactive)
- GI50 [56]: 28.8 µM (inactive)
- GI50 [17]: > 100 µM (inactive)
- GI50 [18]: > 100 µM (inactive)
- GI50 [19]: > 100 µM (inactive)
- GI50 [20]: 56.1 µM (inactive)
- GI50 [21]: 43 µM (inactive)
- GI50 [22]: > 100 µM (inactive)
- GI50 [23]: 33.4 µM
- GI50 [24]: 60.1 µM (inactive)
- GI50 [25]: > 100 µM (inactive)
- GI50 [26]: > 100 µM (inactive)
- GI50 [57]: 32.2 µM (inactive)
- GI50 [27]: 33 µM (inactive)
- GI50 [28]: 69.5 µM (inactive)
- GI50 [29]: > 100 µM (inactive)
- GI50 [30]: 29.1 µM (inactive)
- GI50 [31]: > 100 µM (inactive)
- GI50 [33]: > 100 µM (inactive)
- GI50 [34]: > 100 µM (inactive)
- GI50 [35]: > 100 µM (inactive)
- GI50 [36]: 35.2 µM (inactive)
- GI50 [37]: 20.2 µM (inactive)
- GI50 [38]: 66.5 µM (inactive)
- GI50 [39]: > 100 µM (inactive)
- GI50 [40]: 56.4 µM (inactive)
- GI50 [42]: 41.1 µM (inactive)
- GI50 [43]: 50.6 µM (inactive)
- GI50 [44]: > 100 µM (inactive)
- GI50 [45]: 89.7 µM (inactive)
- GI50 [46]: 79.8 µM (inactive)
- GI50 [47]: 47.1 µM (inactive)
- GI50 [48]: 42.1 µM (inactive)
- GI50 [49]: > 100 µM (inactive)
- GI50 [50]: > 100 µM (inactive)
- GI50 [51]: 75.3 µM (inactive)
- GI50 [52]: 40.6 µM (inactive)
- GI50 [58]: > 100 µM (inactive)

SMILES: C[C@]12CC/C(=N\OCCN3CCCC3)C=C1CCC1C2CC[C@@]2(C)C1CC[C@]2(C)O (some centres not stated)
- GI50 [1]: 7.11 µM (inactive)
- GI50 [2]: 2.3 µM (inactive)
- GI50 [53]: 11.7 µM (inactive)
- GI50 [54]: 3.74 µM (inactive)
- GI50 [3]: 2.56 µM (inactive)
- GI50 [4]: 6.62 µM (inactive)
- GI50 [5]: 14 µM (inactive)
- GI50 [6]: 3.97 µM (inactive)
- GI50 [7]: 5.09 µM (inactive)
- GI50 [8]: 11.5 µM (inactive)
- GI50 [9]: 7.43 µM (inactive)
- GI50 [10]: 0.647 µM (active)
- GI50 [11]: 4.43 µM (inactive)
- GI50 [12]: 11.3 µM (inactive)
- GI50 [13]: 3.35 µM (inactive)
- GI50 [55]: 8.95 µM (inactive)
- GI50 [14]: 11.7 µM (inactive)
- GI50 [16]: 5.16 µM (inactive)
- GI50 [56]: 2.83 µM (inactive)
- GI50 [17]: 18.5 µM (inactive)
- GI50 [18]: 16.6 µM (inactive)
- GI50 [19]: 11.1 µM (inactive)
- GI50 [20]: 5.37 µM (inactive)
- GI50 [21]: 13.8 µM (inactive)
- GI50 [22]: 6.93 µM (inactive)
- GI50 [23]: 3.29 µM
- GI50 [24]: 16.1 µM (inactive)
- GI50 [25]: 15.8 µM (inactive)
- GI50 [26]: 33.3 µM (inactive)
- GI50 [57]: 3.12 µM (inactive)
- GI50 [27]: 2.28 µM (inactive)
- GI50 [28]: 5.21 µM (inactive)
- GI50 [29]: 8.39 µM (inactive)
- GI50 [30]: 3.6 µM (inactive)
- GI50 [31]: 2.9 µM (inactive)
- GI50 [32]: 2.4 µM (inactive)
- GI50 [33]: 13.1 µM (inactive)
- GI50 [34]: 14.7 µM (inactive)
- GI50 [35]: 10.2 µM (inactive)
- GI50 [36]: 3.56 µM (inactive)
- GI50 [37]: 19.3 µM (inactive)
- GI50 [38]: 13.3 µM (inactive)
- GI50 [40]: 12.3 µM (inactive)
- GI50 [41]: 4.33 µM (inactive)
- GI50 [42]: 14.8 µM (inactive)
- GI50 [43]: 12.2 µM (inactive)
- GI50 [44]: 5.6 µM (inactive)
- GI50 [45]: 13.9 µM (inactive)
- GI50 [46]: 3.35 µM (inactive)
- GI50 [47]: 3.4 µM (inactive)
- GI50 [48]: 11.8 µM (inactive)
- GI50 [49]: 7.13 µM (inactive)
- GI50 [51]: 7.29 µM (inactive)
- GI50 [52]: 1.25 µM (inactive)
- GI50 [58]: 16.4 µM (inactive)
